Measurements taken from patent US11806342B2, “Diiodohydroxyquinoline for the treatment of clostridium difficile infection” (Purdue Research Foundation, priority 2019, dated 2023).
Values after ≈ are worked out from the molar mass of the structure shown.

Columns and labels:
Format in all cases: cell-based, Clostridium difficile
C. difficile P7 = experiment: MIC and MBC, broth microdilution; conditions: Clostridioides difficile, P7
Experimental: (§1) MIC50 and MIC90 are the minimum concentration of each agent that inhibited growth of 50% and 90% of the tested isolates, respectively. The minimum bactericidal concentration (MBC) of these drugs was tested by plating 5 μL from wells with no growth onto BHIS agar plates. The MBC was categorized as the lowest concentration that reduced bacterial growth by 99.9% MIC50 and MIC90 are the minimum concentration of each agent that inhibited the growth of 50% and 90% of the tested isolates, respectively. The minimum bactericidal concentration (MBC) of these drugs was tested by plating 5 μL from wells with no growth onto BHIS agar plates. The MBC was categorized as the lowest concentration that reduced bacterial growth by 99.9% [29-31].

C. difficile P24 = experiment: MIC and MBC, broth microdilution; conditions: Clostridioides difficile, P24
Experimental: as §1

C. difficile NR-49284 = experiment: MIC and MBC, broth microdilution; conditions: Clostridioides difficile, NR49284
Experimental: as §1

C. difficile NR-49286 = experiment: MIC and MBC, broth microdilution; conditions: Clostridioides difficile, NR49286
Experimental: as §1

C. difficile P2 = experiment: MIC and MBC, broth microdilution; conditions: Clostridioides difficile, P2
Experimental: as §1

C. difficile HM-89 = experiment: MIC and MBC, broth microdilution; conditions: Clostridioides difficile, HM89
Experimental: as §1

C. difficile NR-49281 = experiment: MIC and MBC, broth microdilution; conditions: Clostridioides difficile, NR49281
Experimental: as §1

C. difficile NR-49277 = experiment: MIC and MBC, broth microdilution; conditions: Clostridioides difficile, NR49277
Experimental: as §1

C. difficile NR-49290 = experiment: MIC and MBC, broth microdilution; conditions: Clostridioides difficile, NR49290
Experimental: as §1

C. difficile ATCC 9689 [1] = experiment: MIC and MBC, broth microdilution; conditions: Clostridioides difficile, ATCC9689
Experimental: as §1

C. difficile I1 = experiment: MIC and MBC, broth microdilution; conditions: Clostridioides difficile, I1
Experimental: as §1

C. difficile I4 = experiment: MIC and MBC, broth microdilution; conditions: Clostridioides difficile, I4
Experimental: as §1

C. difficile P8 = experiment: MIC and MBC, broth microdilution; conditions: Clostridioides difficile, P8
Experimental: as §1

C. difficile P1 = experiment: MIC and MBC, broth microdilution; conditions: Clostridioides difficile, P1
Experimental: as §1

C. difficile ATCC 700057 = experiment: MIC and MBC, broth microdilution; conditions: Clostridioides difficile, ATCC700057
Experimental: as §1

C. difficile P13 = experiment: MIC and MBC, broth microdilution; conditions: Clostridioides difficile, P13
Experimental: as §1

[2] = test system: C. difficile ATCC BAA-1870; experiment: MIC and MBC, broth microdilution; conditions: Clostridioides difficile, ATCCBAA1870
Experimental: as §1

C. difficile ATCC 43598 = experiment: MIC and MBC, broth microdilution; conditions: Clostridioides difficile, ATCC43598
Experimental: as §1

C. difficile I2 = experiment: MIC and MBC, broth microdilution; conditions: Clostridioides difficile, I2
Experimental: as §1

C. difficile P11 [3] = experiment: MIC and MBC, broth microdilution; conditions: Clostridioides difficile, P11
Experimental: as §1

C. difficile I6 = experiment: Checkerboard assay, DIHQ with metronidazole or vancomycin
Experimental: (§2) Interactions between diiodohydroxyquinoline and the anticlostridial drugs (metronidazole and vancomycin) against Clostridium difficile clinical isolates. […] The fractional inhibitory concentration index (ΣFIC) was calculated for each interaction. Interactions where the ΣFIC index was ≤0.5 were categorized as synergistic (SYN).

C. difficile ATCC 9689 [4] = experiment: as above
Experimental: as §2

C. difficile ATCC 1801 = experiment: as above
Experimental: as §2

C. difficile P19 = experiment: as above
Experimental: as §2

C. difficile P30 = experiment: as above
Experimental: as §2

C. difficile P11 [5] = experiment: as above
Experimental: as §2

CN[C@H](CC(C)C)C(=O)N[C@H]1C(=O)N[C@@H](CC(N)=O)C(=O)N[C@H]2C(=O)N[C@H]3C(=O)N[C@H](C(=O)N[C@H](C(=O)O)c4cc(O)cc(O)c4-c4cc3ccc4O)[C@H](O)c3ccc(c(Cl)c3)Oc3cc2cc(c3O[C@@H]2O[C@H](CO)[C@@H](O)[C@H](O)[C@H]2O[C@H]2C[C@](C)(N)[C@H](O)[C@H](C)O2)Oc2ccc(cc2Cl)[C@H]1O [Vancomycin, vancomycin]
MBC (C. difficile P7): 0.5 µg/mL (≈ 0.345 µM)
MIC (C. difficile P7): 0.5 µg/mL (≈ 0.345 µM)
MBC (C. difficile P24): 0.5 µg/mL (≈ 0.345 µM)
MIC (C. difficile P24): 0.5 µg/mL (≈ 0.345 µM)
MBC (C. difficile NR-49284): 0.5 µg/mL (≈ 0.345 µM)
MIC (C. difficile NR-49284): 0.25 µg/mL (≈ 0.173 µM)
MBC (C. difficile NR-49286): 0.5 µg/mL (≈ 0.345 µM)
MIC (C. difficile NR-49286): 0.25 µg/mL (≈ 0.173 µM)
MBC (C. difficile P2): 1 µg/mL (≈ 0.69 µM)
MIC (C. difficile P2): 1 µg/mL (≈ 0.69 µM)
MBC (C. difficile HM-89): 1 µg/mL (≈ 0.69 µM)
MIC (C. difficile HM-89): 1 µg/mL (≈ 0.69 µM)
MBC (C. difficile NR-49281): 0.25 µg/mL (≈ 0.173 µM)
MIC (C. difficile NR-49281): 0.25 µg/mL (≈ 0.173 µM)
MBC (C. difficile NR-49277): 1 µg/mL (≈ 0.69 µM)
MIC (C. difficile NR-49277): 1 µg/mL (≈ 0.69 µM)
MBC (C. difficile NR-49290): 1 µg/mL (≈ 0.69 µM)
MIC (C. difficile NR-49290): 0.5 µg/mL (≈ 0.345 µM)
MBC (C. difficile ATCC 9689 [1]): 1 µg/mL (≈ 0.69 µM)
MIC (C. difficile ATCC 9689 [1]): 0.5 µg/mL (≈ 0.345 µM)
MBC (C. difficile I1): 1 µg/mL (≈ 0.69 µM)
MIC (C. difficile I1): 1 µg/mL (≈ 0.69 µM)
MBC (C. difficile I4): 0.5 µg/mL (≈ 0.345 µM)
MIC (C. difficile I4): 0.5 µg/mL (≈ 0.345 µM)
MBC (C. difficile P8): 1 µg/mL (≈ 0.69 µM)
MIC (C. difficile P8): 1 µg/mL (≈ 0.69 µM)
MBC (C. difficile P1): 0.5 µg/mL (≈ 0.345 µM)
MIC (C. difficile P1): 0.5 µg/mL (≈ 0.345 µM)
MBC (C. difficile ATCC 700057): 0.5 µg/mL (≈ 0.345 µM)
MIC (C. difficile ATCC 700057): 0.5 µg/mL (≈ 0.345 µM)
MBC (C. difficile P13): 0.5 µg/mL (≈ 0.345 µM)
MIC (C. difficile P13): 0.5 µg/mL (≈ 0.345 µM)
MBC [2]: 1 µg/mL (≈ 0.69 µM)
MIC [2]: 1 µg/mL (≈ 0.69 µM)
MBC (C. difficile ATCC 43598): 1 µg/mL (≈ 0.69 µM)
MIC (C. difficile ATCC 43598): 1 µg/mL (≈ 0.69 µM)
MBC (C. difficile I2): 1 µg/mL (≈ 0.69 µM)
MIC (C. difficile I2): 1 µg/mL (≈ 0.69 µM)
MBC (C. difficile P11 [3]): 1 µg/mL (≈ 0.69 µM)
MIC (C. difficile P11 [3]): 1 µg/mL (≈ 0.69 µM)
MIC of vancomycin combined with DIHQ (C. difficile I6; C. difficile I6): 0.06 µg/mL
MIC (C. difficile I6; Clostridioides difficile, I6, read-out: MIC alone): 0.5 µg/mL
MIC of vancomycin combined with DIHQ (C. difficile ATCC 9689 [4]; C. difficile ATCC 9689): 0.125 µg/mL
MIC (C. difficile ATCC 9689 [4]; Clostridioides difficile, ATCC9689, read-out: MIC alone): 1 µg/mL
MIC of vancomycin combined with DIHQ (C. difficile ATCC 1801; C. difficile ATCC 1801): 0.06 µg/mL
MIC (C. difficile ATCC 1801; Clostridioides difficile, ATCC1801, read-out: MIC alone): 0.5 µg/mL
MIC of vancomycin combined with DIHQ (C. difficile P19; C. difficile P19): 0.125 µg/mL
MIC (C. difficile P19; Clostridioides difficile, P19, read-out: MIC alone): 1 µg/mL
MIC of vancomycin combined with DIHQ (C. difficile P30; C. difficile P30): 0.125 µg/mL
MIC (C. difficile P30; Clostridioides difficile, P30, read-out: MIC alone): 1 µg/mL
MIC of vancomycin combined with DIHQ (C. difficile P11 [5]; C. difficile P11): 0.125 µg/mL
MIC (C. difficile P11 [5]; Clostridioides difficile, P11, read-out: MIC alone): 1 µg/mL
